In patent US7935853B2, “Micronized composition of a 2,4-disubstituted phenol derivative” (priority 2008, dated 2011):
Values after ≈ are worked out from the molar mass of the structure shown.

Assays:
LTB4 synthesis = assay: First phase I trial, plasma concentration vs LTB4 synthesis inhibition (EMAX); format: in vivo; settings: Homo sapiens; healthy volunteers, single oral dose, EMAX type relationship; read-out: IC50 (level of drug in plasma eliciting half of maximal LTB4 synthesis inhibition)
Text: (§1) 2,4,6-triiodophenol is a potent leukotriene B4 (LTB4) synthesis inhibitor that is currently under clinical development. The exact mechanism of action of 2,4,6-triiodophenol is not completely understood but it is known that the inhibition of the enzyme 5-lipoxygenase is involved.

[1] = First phase I clinical trial, single oral dose, safety and pharmacokinetics; format: in vivo, human; settings: healthy volunteers
Method: as §1
A preliminary exploratory analysis was done by simulating the typical pharmacokinetic profiles after single and multiple 240, 350, and 500 mg dose regimens based on the pharmacokinetic model and model parameter estimates obtained from the first phase I study, where 2,4,6-triiodophenol was given to healthy volunteers in a single dose ranging from 6 to 1200 mg.

[2] = system: arthritis induced by injection of type II collagen in the mouse; assay: Model of arthritis induced by type II collagen in mice (CIA), hind paw plethysmometry; format: in vivo; settings: for Total hind paw volume (sum of both hind paws) / Oedema (difference in paw volume from basal values on day 21) in both hind paws: group mean n=10
Method: The aim of the study was to determine the anti-inflammatory activity of the test item in a model of arthritis induced by injection of type II collagen in the mouse (CIA) and to compare the activity of two different formulations: micronized and non-micronized.
Induction of arthritis was carried out by an initial exposure to type II bovine collagen by a subcutaneous injection at the base of the tail (induction phase).
After a recovery time of 21 days, animals received a booster injection and approximately 4-5 weeks after the first injection there was an immune response with arthritis appearing in the extremities in the majority of the cases.
Four experimental groups were used in the study with 10 animals in each group:
Group D: Positive control: FCA+vehicle B.I.D.
Group E: Micronized Test Item (Micro) 10 mg/kg B.I.D.
Group F: Non-Micronized test item 10 mg/kg B.I.D.
Group G: Reference item: Indomethacin 1 mg/kg Q.D.
The dose administered to groups E and F was 10 mg/kg.
The dose administered to group G was 1 mg/kg.
The doses of the test and reference items were expressed as mg/Kg of compound administered to each animal.
The test and reference items were administered in a solution of methylcellulose (0.25%: vehicle).
The positive control group received the vehicle (methylcellulose 0.25%).
The test and reference items, as well as the vehicle were administered orally at a dosing volume of 5 mls/kg.
The route of administration used was oral by use of an intragastric cannula.
On the day of start of the study each mouse was injected subcutaneously at the base of the tail with a first dose of 0.1 ml of an emulsion of bovine type II collagen (1 mg/mL) in Freund's Complete Adjuvant. Afterwards, on day 21 after this first injection, a second booster injection of type II collagen was administered to all animals. In this occasion the collagen suspension was done using Incomplete Freund's Adjuvant.
Coinciding with the second booster injection on day 21 treatment with the test or reference items was started to the corresponding animals.
Treatment with the test or reference items was carried out for 31 consecutive days (days 21-51 of the experimental period). Additionally, a recovery period was included at the end of the treatment period from day 52 to day 65 in order to evaluate the duration of any anti-inflammatory effect observed once dosing has been terminated.
The animals' hind paw volume was measured by plethysmometry one day before the 1st injection of collagen, again one day before the second (booster) collagen injection (basal values) and then daily after administration of test/reference item until the end of the study. During the recovery period at the end of the study, hind paw volume was measured three times per week.
Additionally the data was also represented graphically, depicting changes in total hind paw volume, as well as oedema (differences from basal (day 21) values).

[3] = day 22, oral treatment days 21-51
[4] = day 23, oral treatment days 21-51
[5] = day 26, oral treatment days 21-51
[6] = day 27, oral treatment days 21-51
[7] = day 29, oral treatment days 21-51
[8] = day 30, oral treatment days 21-51
[9] = day 33, oral treatment days 21-51
[10] = day 34, oral treatment days 21-51
[11] = day 35, oral treatment days 21-51
[12] = day 36, oral treatment days 21-51
[13] = day 37, oral treatment days 21-51
[14] = day 40, oral treatment days 21-51
[15] = day 41, oral treatment days 21-51
[16] = day 42, oral treatment days 21-51
[17] = day 43, oral treatment days 21-51
[18] = day 44, oral treatment days 21-51
[19] = day 47, oral treatment days 21-51
[20] = day 48, oral treatment days 21-51
[21] = day 49, oral treatment days 21-51
[22] = day 50, oral treatment days 21-51
[23] = day 51, oral treatment days 21-51
[24] = day 54, recovery period after treatment days 21-51
[25] = day 56, recovery period after treatment days 21-51
[26] = day 58, recovery period after treatment days 21-51
[27] = day 61, recovery period after treatment days 21-51
[28] = day 63, recovery period after treatment days 21-51
[29] = day 65, recovery period after treatment days 21-51

In the case of `Oc1c(I)cc(I)cc1I` [2,4,6-triiodophenol], the IC50 (LTB4 synthesis) is reported as 16.6 µg/mL (≈ 35.2 µM), the safety and tolerability ([1]; single oral dose from 6 mg to 1200 mg) is reported as “very good safety and tolerability profiles” and the pharmacokinetic behavior ([1]; single oral dose, at least in the range from 240 to 700 mg) is reported as “predictable and dose-independent”.
With `COc1ccc2c(c1)c(CC(=O)O)c(C)n2C(=O)c1ccc(Cl)cc1` [Indomethacin, reference compound] the “Total hind paw volume (sum of both hind paws)” value (“Total hind paw volume” for short) ([2]; day 0, before collagen and treatment) was 0.175, the “Total hind paw volume” value ([2]; day 20, basal, before treatment) was 0.227 and the “Oedema (difference in paw volume from basal values on day 21) in both hind paws” value [2, 3] was 0.000. For the same compound, the “Total hind paw volume” value [2, 3] was 0.227, the “Oedema (difference in paw volume from basal values on day 21) in both hind paws” value [2, 4] was 0.000 and the “Total hind paw volume” value [2, 4] was 0.227. The “Oedema (difference in paw volume from basal values on day 21) in both hind paws” value [2, 5] was 0.022, the “Total hind paw volume” value [2, 5] was 0.249 and the “Oedema (difference in paw volume from basal values on day 21) in both hind paws” value [2, 6] was 0.001. The “Total hind paw volume” value [2, 6] was 0.228, the “Oedema (difference in paw volume from basal values on day 21) in both hind paws” value [2, 7] was 0.011 and the “Total hind paw volume” value [2, 7] was 0.237. For the same compound, the “Oedema (difference in paw volume from basal values on day 21) in both hind paws” value [2, 8] was 0.012, the “Total hind paw volume” value [2, 8] was 0.239 and the “Oedema (difference in paw volume from basal values on day 21) in both hind paws” value [2, 9] was 0.012. For the same compound, the “Total hind paw volume” value [2, 9] was 0.238, the “Oedema (difference in paw volume from basal values on day 21) in both hind paws” value [2, 10] was 0.013 and the “Total hind paw volume” value [2, 10] was 0.240. The “Oedema (difference in paw volume from basal values on day 21) in both hind paws” value [2, 11] was 0.020, the “Total hind paw volume” value [2, 11] was 0.246 and the “Oedema (difference in paw volume from basal values on day 21) in both hind paws” value [2, 12] was 0.012. For the same compound, the “Total hind paw volume” value [2, 12] was 0.239, the “Oedema (difference in paw volume from basal values on day 21) in both hind paws” value [2, 13] was −0.005 and the “Total hind paw volume” value [2, 13] was 0.222. The “Oedema (difference in paw volume from basal values on day 21) in both hind paws” value [2, 14] was 0.028, the “Total hind paw volume” value [2, 14] was 0.255 and the “Oedema (difference in paw volume from basal values on day 21) in both hind paws” value [2, 15] was 0.031. The “Total hind paw volume” value [2, 15] was 0.257, the “Oedema (difference in paw volume from basal values on day 21) in both hind paws” value [2, 16] was 0.021 and the “Total hind paw volume” value [2, 16] was 0.247. The “Oedema (difference in paw volume from basal values on day 21) in both hind paws” value [2, 17] was 0.023, the “Total hind paw volume” value [2, 17] was 0.250 and the “Oedema (difference in paw volume from basal values on day 21) in both hind paws” value [2, 18] was 0.011. For the same compound, the “Total hind paw volume” value [2, 18] was 0.238, the “Oedema (difference in paw volume from basal values on day 21) in both hind paws” value [2, 19] was 0.028 and the “Total hind paw volume” value [2, 19] was 0.254. For the same compound, the “Oedema (difference in paw volume from basal values on day 21) in both hind paws” value [2, 20] was 0.025, the “Total hind paw volume” value [2, 20] was 0.252 and the “Oedema (difference in paw volume from basal values on day 21) in both hind paws” value [2, 21] was 0.030. For the same compound, the “Total hind paw volume” value [2, 21] was 0.256, the “Oedema (difference in paw volume from basal values on day 21) in both hind paws” value [2, 22] was 0.030 and the “Total hind paw volume” value [2, 22] was 0.256. For the same compound, the “Oedema (difference in paw volume from basal values on day 21) in both hind paws” value [2, 23] was 0.021, the “Total hind paw volume” value [2, 23] was 0.248 and the “Oedema (difference in paw volume from basal values on day 21) in both hind paws” value [2, 24] was 0.040. The “Total hind paw volume” value [2, 24] was 0.266, the “Oedema (difference in paw volume from basal values on day 21) in both hind paws” value [2, 25] was 0.052 and the “Total hind paw volume” value [2, 25] was 0.279. For the same compound, the “Oedema (difference in paw volume from basal values on day 21) in both hind paws” value [2, 26] was 0.058, the “Total hind paw volume” value [2, 26] was 0.285 and the “Oedema (difference in paw volume from basal values on day 21) in both hind paws” value [2, 27] was 0.058. For the same compound, the “Total hind paw volume” value [2, 27] was 0.28, the “Oedema (difference in paw volume from basal values on day 21) in both hind paws” value [2, 28] was 0.064 and the “Total hind paw volume” value [2, 28] was 0.29. The “Oedema (difference in paw volume from basal values on day 21) in both hind paws” value [2, 29] was 0.076, the “Total hind paw volume” value [2, 29] was 0.30 and the “effect on hind paw oedema (in words)” value ([2]; test item 10 mg/kg BID, Indomethacin 1 mg/kg Q.D, oral) was “significant anti-inflammatory response”.
